From patent publication US9440952B2, “Compounds inhibiting leucine-rich repeat kinase enzyme activity” (Merck Sharp & Dohme Corp., priority 2013, dated 2016)
Where two headings read alike, the source gives them in different places.

Target: T1, LRRK2(G2019S mutation, GST-LRRK2(amino acids 970-2527)) (Homo sapiens, UniProt Q5S007, G2019S)
T1 construct: GST-LRRK2(amino acids 970-2527); GST (N); purchased Life Technologies Corporation
Assay: LRRK2 Km ATP LanthaScreen Assay
Format: biochemical
How it was run: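 IC50 values are means of several runs in the Km-ATP LanthaScreen format, analysed by curve fitting of the LanthaScreen read-out.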

[1] = Km ATP LanthaScreen Assay, LRRK2 G2019S, mean IC50 values, read-out: LRRK2 IC50
[2] = Km ATP LanthaScreen Assay; LRRK2 G2019S; mean IC50 values; Examples 185-215; read-out: LRRK2 IC5)
[3] = Km ATP LanthaScreen, mean IC50 of several tests, read-out: LRRK2 IC50

T1 sequence (Q5S007 970-2527 G2019S): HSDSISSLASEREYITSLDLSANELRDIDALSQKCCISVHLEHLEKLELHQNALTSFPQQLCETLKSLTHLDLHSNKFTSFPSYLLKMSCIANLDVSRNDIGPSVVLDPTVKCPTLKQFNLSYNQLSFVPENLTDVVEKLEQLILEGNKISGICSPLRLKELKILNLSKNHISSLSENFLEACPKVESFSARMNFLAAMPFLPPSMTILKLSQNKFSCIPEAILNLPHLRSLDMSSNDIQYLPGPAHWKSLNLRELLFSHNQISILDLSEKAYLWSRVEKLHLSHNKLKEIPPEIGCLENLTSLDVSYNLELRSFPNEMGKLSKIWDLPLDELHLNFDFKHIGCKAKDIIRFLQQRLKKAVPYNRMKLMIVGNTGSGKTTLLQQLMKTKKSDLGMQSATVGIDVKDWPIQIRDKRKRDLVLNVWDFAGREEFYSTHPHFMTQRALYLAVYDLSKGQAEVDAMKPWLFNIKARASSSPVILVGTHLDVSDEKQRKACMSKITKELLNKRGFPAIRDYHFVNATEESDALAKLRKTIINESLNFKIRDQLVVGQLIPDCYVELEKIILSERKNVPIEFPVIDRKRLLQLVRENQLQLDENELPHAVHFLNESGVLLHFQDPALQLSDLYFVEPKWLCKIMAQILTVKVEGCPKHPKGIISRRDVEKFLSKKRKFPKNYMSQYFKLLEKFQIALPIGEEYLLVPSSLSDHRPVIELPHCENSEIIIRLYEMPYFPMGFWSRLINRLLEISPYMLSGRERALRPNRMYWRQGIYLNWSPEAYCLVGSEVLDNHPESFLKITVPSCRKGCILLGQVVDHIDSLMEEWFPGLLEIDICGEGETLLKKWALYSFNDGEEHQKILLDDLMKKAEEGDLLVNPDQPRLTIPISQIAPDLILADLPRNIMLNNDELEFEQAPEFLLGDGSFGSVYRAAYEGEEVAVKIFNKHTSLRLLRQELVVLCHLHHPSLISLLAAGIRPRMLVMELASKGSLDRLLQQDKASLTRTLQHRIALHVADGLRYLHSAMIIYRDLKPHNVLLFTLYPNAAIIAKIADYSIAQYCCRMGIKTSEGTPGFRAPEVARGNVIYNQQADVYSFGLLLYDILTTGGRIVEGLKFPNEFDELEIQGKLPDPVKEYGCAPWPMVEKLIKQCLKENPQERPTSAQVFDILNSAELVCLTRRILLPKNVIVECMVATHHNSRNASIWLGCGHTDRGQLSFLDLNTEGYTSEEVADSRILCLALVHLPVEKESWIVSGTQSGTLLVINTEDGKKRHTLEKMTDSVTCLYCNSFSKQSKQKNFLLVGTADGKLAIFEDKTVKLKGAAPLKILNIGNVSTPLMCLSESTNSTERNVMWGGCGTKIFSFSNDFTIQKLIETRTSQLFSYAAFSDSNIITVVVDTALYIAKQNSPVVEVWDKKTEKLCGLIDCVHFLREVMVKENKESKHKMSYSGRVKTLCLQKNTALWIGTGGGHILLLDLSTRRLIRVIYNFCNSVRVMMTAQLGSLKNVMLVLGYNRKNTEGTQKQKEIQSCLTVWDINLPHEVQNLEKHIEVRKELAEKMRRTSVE

SMILES	IC50 [1]	IC50 [2]	also measured
CC(C)Oc1ccc2[nH]nc(-c3ccnc(N4CC(O)(C(F)(F)F)C4)c3)c2c1 [Example 182]	10.8 nM	–	–
COC1CN(c2cc(-c3n[nH]c4ccc(OC(C)C)cc34)ccn2)C1 [Example 183]	5.3 nM	–	–
CC(C)Oc1ccc2[nH]nc(-c3ccnc(N4CC(S(C)(=O)=O)C4)c3)c2c1 [Example 184]	5.4 nM	–	–
CC(C)Oc1ccc2[nH]nc(-c3ccnc(N4CCS(=O)(=O)c5ccccc5C4)c3)c2c1 [Example 186]	–	154 nM	–
CC(C)Oc1ccc2[nH]nc(-c3ccnc(N4CCC(n5cncn5)CC4)c3)c2c1 [Example 187]	–	4 nM	–
CC(C)Oc1ccc2[nH]nc(-c3ccnc(N4CCCS(=O)(=O)CC4)c3)c2c1 [Example 188]	–	21.4 nM	–
CC(C)Oc1ccc2[nH]nc(-c3ccnc(N4CCCN(S(C)(=O)=O)CC4)c3)c2c1 [Example 189]	–	22.4 nM	–
CC(C)Oc1ccc2[nH]nc(-c3ccnc(N4CC(n5cccn5)C4)c3)c2c1 [Example 190]	–	13.2 nM	–
CC(C)Oc1ccc2[nH]nc(-c3ccnc(N4CC[S+]([O-])CC4)c3)c2c1 [Example 191]	–	7.4 nM	–
Cc1nnc(CN(C)c2cc(-c3n[nH]c4ccc(OC(C)C)cc34)ccn2)o1 [Example 192]	–	25.3 nM	–
CC(C)Oc1ccc2[nH]nc(-c3ccnc(N4CCCC(c5nncn5C)C4)c3)c2c1 (stereo not shown) [Example 193]	–	6.2 nM	–
CC(C)Oc1ccc2[nH]nc(-c3ccnc(N4CCC(n5cnnc5)CC4)c3)c2c1 [Example 194]	–	4.4 nM	–
CCc1nnc2n1CCN(c1cc(-c3n[nH]c4ccc(OC(C)C)cc34)ccn1)C2 [Example 195]	–	7.2 nM	–
CC(C)Oc1ccc2[nH]nc(-c3ccnc(N4CCn5ccnc5C4)c3)c2c1 [Example 196]	–	8.6 nM	–
Cc1nc2c(o1)CCN(c1cc(-c3n[nH]c4ccc(OC(C)C)cc34)ccn1)C2 [Example 197]	–	12.8 nM	–
Cc1nc2c(o1)CN(c1cc(-c3n[nH]c4ccc(OC(C)C)cc34)ccn1)CC2 [Example 198]	–	9.2 nM	–
CC(C)Oc1ccc2[nH]nc(-c3ccnc(N4CCN(c5ccccc5)C(=O)C4)c3)c2c1 [Example 199]	–	8.9 nM	–
CC(C)Oc1ccc2[nH]nc(-c3ccnc(N4CCN(c5ccccn5)CC4)c3)c2c1 [Example 200]	–	10.9 nM	–
CC(C)Oc1ccc2[nH]nc(-c3ccnc(N4CCCC4)c3)c2c1 [Example 201]	–	5 nM	–
CC(C)Oc1ccc2[nH]nc(-c3ccnc(N4CCN(c5cnccn5)CC4)c3)c2c1 [Example 202]	–	6.4 nM	–
CC(C)Oc1ccc2[nH]nc(-c3ccnc(N4CCN(c5nccs5)CC4)c3)c2c1 [Example 203]	–	13.4 nM	–
CC(C)Oc1ccc2[nH]nc(-c3ccnc(N4CCN(c5ncccn5)CC4)c3)c2c1 [Example 204]	–	7.9 nM	–
CC(C)Oc1ccc2[nH]nc(-c3ccnc(N4CCCC(c5ccncn5)C4)c3)c2c1 (stereo not shown) [Example 205]	–	6.4 nM	–
Cc1ncc(N2CCN(c3cc(-c4n[nH]c5ccc(OC(C)C)cc45)ccn3)CC2)s1 [Example 206]	–	10.5 nM	–
Cc1nonc1N1CCN(c2cc(-c3n[nH]c4ccc(OC(C)C)cc34)ccn2)CC1 [Example 207]	–	20.8 nM	–
CC(C)Oc1ccc2[nH]nc(-c3ccnc(N4Cc5cccnc5C4)c3)c2c1 [Example 208]	–	17.5 nM	–
CC(C)Oc1ccc2[nH]nc(-c3ccnc(N4CCCN(c5ncccn5)CC4)c3)c2c1 [Example 209]	–	25.5 nM	–

SMILES	IC50 [1]	IC50 [2]	also measured
CC(C)Oc1ccc2[nH]nc(-c3ccnc(N4CCN(C5CC5)CC4)c3)c2c1 [Example 210]	–	7.4 nM	–
CC(C)Oc1ccc2[nH]nc(-c3ccnc(N4CCN(CC5CC5)CC4)c3)c2c1 [Example 211]	–	6.2 nM	–
CC(C)Oc1ccc2[nH]nc(-c3ccnc(N4CCN(c5ncc6ccccc6n5)CC4)c3)c2c1 [Example 212]	–	70.6 nM	–
CC(C)Oc1ccc2[nH]nc(-c3ccnc(N4CC(F)(F)C4)c3)c2c1 [Example 213]	–	16.7 nM	–
CC(C)Oc1ccc2[nH]nc(-c3ccnc(N4CCn5nc(C6CC6)nc5C4)c3)c2c1 [Example 214]	–	15.4 nM	–
Cc1nnc(C2CCN(c3cc(-c4n[nH]c5ccc(OC(C)C)cc45)ccn3)CC2)o1 [Example 215]	–	6 nM	–
CCOc1ccc2[nH]nc(-c3ccnc(N4CCC(F)(F)CC4)c3)c2c1 [Example 216]	5.4 nM	–	–
CCOc1ccc2[nH]nc(-c3ccnc(N4CCN(C)C(=O)C4)c3)c2c1 [Example 217]	4.9 nM	–	–
CCOc1ccc2[nH]nc(-c3ccnc(N4CCC(n5cccn5)CC4)c3)c2c1 [Example 218]	14.4 nM	–	–
CCOc1ccc2[nH]nc(-c3ccnc(N4CC(C#N)(c5ccccc5)C4)c3)c2c1 [Example 219]	70 nM	–	–
CCOc1ccc2[nH]nc(-c3ccnc(N4CCC5OCCC54)c3)c2c1 (stereo not shown) [Example 220]	22.6 nM	–	–
CCOc1ccc2[nH]nc(-c3ccnc(N4C[C@@H]5C[C@H]4CO5)c3)c2c1 [Example 221]	20.9 nM	–	–
CCOc1ccc2[nH]nc(-c3ccnc(N4CCC(n5cccn5)C4)c3)c2c1 (stereo not shown) [Example 222]	9.3 nM	–	–
CCOc1ccc2[nH]nc(-c3ccnc(N4CCC(F)(F)C4)c3)c2c1 [Example 223]	13.5 nM	–	–
CCOc1ccc2[nH]nc(-c3ccnc(N4CCC(C#N)(c5ccccc5)C4)c3)c2c1 (stereo not shown) [Example 225]	16.3 nM	–	–
CCOc1ccc2[nH]nc(-c3ccnc(N4CCn5ccnc5C4)c3)c2c1 [Example 226]	18.9 nM	–	–
CCOc1ccc2[nH]nc(-c3ccnc(N4CC[C@@H](OC)C4)c3)c2c1 [Example 227]	11.3 nM	–	–
CCOc1ccc2[nH]nc(-c3ccnc(N4C5CCCC4CC5)c3)c2c1 [Example 228]	48.9 nM	–	–
CCOc1ccc2[nH]nc(-c3ccnc(N4CC5C(C4)C5(C#N)c4ccccn4)c3)c2c1 (stereo not shown) [Example 229]	113 nM	–	–
CCOc1ccc2[nH]nc(-c3ccnc(N4CCC4)c3)c2c1 [Example 230]	29.4 nM	–	–
OC1CCN(c2cc(-c3n[nH]c4ccc(OC(F)(F)F)cc34)ccn2)CC1 [Example 231]	82.7 nM	–	–
FC(F)(F)Oc1ccc2[nH]nc(-c3ccnc(N4CCCCC4)c3)c2c1 [Example 232]	279 nM	–	–
FC(F)(F)Oc1ccc2[nH]nc(-c3ccnc(N4CCCC4)c3)c2c1 [Example 233]	130 nM	–	–
CN1CCN(c2cc(-c3n[nH]c4ccc(OC(F)(F)F)cc34)ccn2)CC1 [Example 234]	82.5 nM	–	–
FC(F)(F)Oc1ccc2[nH]nc(-c3ccnc(N4CCN(c5ncccn5)CC4)c3)c2c1 [Example 235]	476 nM	–	–
CS(=O)(=O)C1CN(c2cc(-c3n[nH]c4ccc(OC(F)(F)F)cc34)ccn2)C1 [Example 236]	106 nM	–	–
FC(F)(F)CN1CCN(c2cc(-c3n[nH]c4ccc(OC(F)(F)F)cc34)ccn2)CC1 [Example 237]	279 nM	–	–

SMILES	IC50 [1]	IC50 [2]	also measured
CO[C@H]1CN(c2cc(-c3n[nH]c4ccc(OC(F)(F)F)cc34)ccn2)C[C@@H]1O [Example 238]	165 nM	–	–
FC(F)(F)Oc1ccc2[nH]nc(-c3ccnc(N4CCN(n5cccn5)CC4)c3)c2c1 [Example 239]	233 nM	–	–
F[C@@H]1CCN(c2cc(-c3n[nH]c4ccc(OC(F)(F)F)cc34)ccn2)C1 [Example 240]	206 nM	–	–
FC(F)(F)Oc1ccc2[nH]nc(-c3ccnc(N4CC(n5cccn5)C4)c3)c2c1 [Example 241]	315 nM	–	–
FC1(F)CCN(c2cc(-c3n[nH]c4ccc(OC(F)(F)F)cc34)ccn2)CC1 [Example 243]	1060 nM	–	–
FC(F)(F)Oc1ccc2[nH]nc(-c3ccnc(N4CCN(C5CC5)CC4)c3)c2c1 [Example 244]	188 nM	–	–
FC1(F)CCN(c2cc(-c3n[nH]c4ccc(OC(F)(F)F)cc34)ccn2)C1 [Example 245]	1490 nM	–	–
COC1CN(c2cc(-c3n[nH]c4ccc(OC(F)(F)F)cc34)ccn2)C1 [Example 246]	289 nM	–	–
FC1(F)CN(c2cc(-c3n[nH]c4ccc(OC(F)(F)F)cc34)ccn2)C1 [Example 247]	369 nM	–	–
OC[C@H]1CCN(c2cc(-c3n[nH]c4ccc(OC(F)(F)F)cc34)ccn2)C1 [Example 248]	96 nM	–	–
CCc1nnc2n1CCN(c1cc(-c3n[nH]c4ccc(OC(F)(F)F)cc34)ccn1)C2 [Example 249]	190 nM	–	–
CO[C@@H]1CCN(c2cc(-c3n[nH]c4ccc(OC(F)(F)F)cc34)ccn2)C1 [Example 250]	854 nM	–	–
Cc1nc2c(o1)CCN(c1cc(-c3n[nH]c4ccc(OC(F)(F)F)cc34)ccn1)C2 [Example 251]	431 nM	–	–
FC(F)(F)Oc1ccc2[nH]nc(-c3ccnc(N4CCc5nc(C6CC6)oc5C4)c3)c2c1 [Example 252]	700 nM	–	–
COC1(C)CN(c2cc(-c3n[nH]c4ccc(OC(F)(F)F)cc34)ccn2)C1 [Example 253]	201 nM	–	–
Oc1ccc2[nH]nc(-c3ccnc(N4CCCCC4)c3)c2c1 [Example 254]	10.1 nM	–	–
CS(=O)(=O)C1CN(c2cc(-c3n[nH]c4ccc(O)cc34)ccn2)C1 [Example 255]	30.8 nM	–	–
CC(C)Oc1ccc2[nH]nc(-c3ccnc(NS(=O)(=O)c4cccc(F)c4)c3)c2c1 [Example 256]	–	–	IC50 [3]: 42.5 nM
COc1cccc(S(=O)(=O)Nc2cc(-c3n[nH]c4ccc(OC(C)C)cc34)ccn2)c1 [Example 257]	–	–	IC50 [3]: 78.4 nM
CC(C)Oc1ccc2[nH]nc(-c3ccnc(NS(=O)(=O)C4CC4)c3)c2c1 [Example 259]	–	–	IC50 [3]: 63.2 nM
CC(C)Oc1ccc2[nH]nc(-c3ccnc(NS(=O)(=O)c4ccc5c(c4)OCCO5)c3)c2c1 [Example 260]	–	–	IC50 [3]: 52.3 nM
CC(C)Oc1ccc2[nH]nc(-c3ccnc(NS(=O)(=O)Cc4ccccn4)c3)c2c1 [Example 261]	–	–	IC50 [3]: 124 nM
CC(C)Oc1ccc2[nH]nc(-c3ccnc(NS(=O)(=O)c4ccc5c(c4)N(C)C(=O)CO5)c3)c2c1 [Example 262]	–	–	IC50 [3]: 43.4 nM
CC(C)Oc1ccc2[nH]nc(-c3ccnc(NS(=O)(=O)c4ccc(C5(C#N)CC5)cc4)c3)c2c1 [Example 263]	–	–	IC50 [3]: 60.8 nM
CC(C)Oc1ccc2[nH]nc(-c3ccnc(NS(=O)(=O)c4ccc(C(C)(C)C#N)cc4)c3)c2c1 [Example 264]	–	–	IC50 [3]: 68.8 nM
